Experimental data as given in patent US11453703B2, “Heterotandem bicyclic peptide complexes” (BicycleTX Limited, priority 2018, dated 2022).
pEC50, pKd: −log10 of the molar value.

Experiments:
human EphA2 protein = human EphA2 protein (Homo sapiens, UniProt P29317); assay: EphA2 Biacore (SPR) binding assay; settings: biotinylated human EphA2, 25° C.
Experimental: Biacore experiments were performed to determine ka (M^−1s^−1), kd (s^−1), KD (nM) values of heterotandem peptides binding to human EphA2 protein.
EphA2 were biotinylated with EZ-Link™ Sulfo-NHS-LC-Biotin for 1 hour in 4 mM sodium acetate, 100 mM NaCl, pH 5.4 with a 3× molar excess of biotin over protein. The degree of labelling was determined using a Fluorescence Biotin Quantification Kit (Thermo) after dialysis of the reaction mixture into PBS. For analysis of peptide binding, a Biacore T200 instrument was used with a XanTec CMD500D chip. Streptavidin was immobilized on the chip using standard amine-coupling chemistry at 25° C. with HBS-N (10 mM HEPES, 0.15 M NaCl, pH 7.4) as the running buffer. Briefly, the carboxymethyl dextran surface was activated with a 7 min injection of a 1:1 ratio of 0.4 M 1-ethyl-3-(3-dimethylaminopropyl) carbodiimide hydrochloride (EDC)/0.1 M N-hydroxy succinimide (NHS) at a flow rate of 10 it/min. For capture of streptavidin, the protein was diluted to 0.2 mg/ml in 10 mM sodium acetate (pH 4.5) and captured by injecting 120 μl onto the activated chip surface. Residual activated groups were blocked with a 7 min injection of 1 M ethanolamine (pH 8.5):HBS-N (1:1). Buffer was changed to PBS/0.05% Tween 20 and biotinylated EphA2 was captured to a level of 500-1500 RU using a dilution of protein to 0.2 μM in buffer. A dilution series of the peptides was prepared in this buffer with a final DMSO concentration of 0.5% with a top peptide concentration was 50 or 100 nM and 6 further 2-fold dilutions. The SPR analysis was run at 25° C. at a flow rate of 90 μl/min with 60 seconds association and 900-1200 seconds dissociation. Data were corrected for DMSO excluded volume effects. All data were double-referenced for blank injections and reference surface using standard processing procedures and data processing and kinetic fitting were performed using Scrubber software, version 2.0c (BioLogic Software). Data were fitted using simple 1:1 binding model allowing for mass transport effects where appropriate.

CD137 [1] = target: T1, CD137 (Homo sapiens, UniProt Q07011); assay: CD137 reporter assay, co-culture with EphA2 tumour cells; type: cell-based; set-up: host or cells: Jurkat reporter cells; settings: tumour target EphA2, co-culture with SC-OV-3, 6 h
Method in brief: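 Jurkat CD137 reporter cells co-cultured with tumour cells and serially diluted test articles in RPMI-1640 + 1% FBS, 6 h at 37 °C, 5% CO2. Luminescence read after Bio-Glo; fold change over cells-only background fitted log(agonist) vs response for EC50 (nM) and maximal fold induction.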

CD137 [2] = target: T1, CD137; assay: CD137 Biacore (SPR) binding assay; set-up: purchased R&D systems; settings: biotinylated human CD137, 25° C.
Experimental: Biacore experiments were performed to determine ka (M^−1s^−1), kd (s^−1), KD (nM) values of heterotandem peptides binding to human CD137 protein. […] The protein was desalted to remove uncoupled biotin using spin columns into PBS.
For analysis of peptide binding, a Biacore T200 or a Biacore 3000 instrument was used with a XanTec CMD500D chip. Streptavidin was immobilized on the chip using standard amine-coupling chemistry at 25° C. with HBS-N (10 mM HEPES, 0.15 M NaCl, pH 7.4) as the running buffer. Briefly, the carboxymethyl dextran surface was activated with a 7 min injection of a 1:1 ratio of 0.4 M 1-ethyl-3-(3-dimethylaminopropyl) carbodiimide hydrochloride (EDC)/0.1 M N-hydroxy succinimide (NHS) at a flow rate of 10 μl/min. For capture of streptavidin, the protein was diluted to 0.2 mg/ml in 10 mM sodium acetate (pH 4.5) and captured by injecting 120 μl of onto the activated chip surface. Residual activated groups were blocked with a 7 min injection of 1 M ethanolamine (pH 8.5) and biotinylated CD137 captured to a level of 270-1500 RU. Buffer was changed to PBS/0.05% Tween 20 and a dilution series of the peptides was prepared in this buffer with a final DMSO concentration of 0.5%. The top peptide concentration was 500 nM with 6 further 2-fold or 3-fold dilutions. The SPR analysis was run at 25° C. at a flow rate of 90 μl/min with 60 seconds association and 900 seconds dissociation. After each cycle a regeneration step (10 μl of 10 mM glycine pH 2) was employed. Data were corrected for DMSO excluded volume effects as needed. All data were double-referenced for blank injections and reference surface using standard processing procedures and data processing and kinetic fitting were performed using Scrubber software, version 2.0c (BioLogic Software). Data were fitted using simple 1:1 binding model allowing for mass transport effects where appropriate.

human EphA2 protein, sequence (P29317 24-976): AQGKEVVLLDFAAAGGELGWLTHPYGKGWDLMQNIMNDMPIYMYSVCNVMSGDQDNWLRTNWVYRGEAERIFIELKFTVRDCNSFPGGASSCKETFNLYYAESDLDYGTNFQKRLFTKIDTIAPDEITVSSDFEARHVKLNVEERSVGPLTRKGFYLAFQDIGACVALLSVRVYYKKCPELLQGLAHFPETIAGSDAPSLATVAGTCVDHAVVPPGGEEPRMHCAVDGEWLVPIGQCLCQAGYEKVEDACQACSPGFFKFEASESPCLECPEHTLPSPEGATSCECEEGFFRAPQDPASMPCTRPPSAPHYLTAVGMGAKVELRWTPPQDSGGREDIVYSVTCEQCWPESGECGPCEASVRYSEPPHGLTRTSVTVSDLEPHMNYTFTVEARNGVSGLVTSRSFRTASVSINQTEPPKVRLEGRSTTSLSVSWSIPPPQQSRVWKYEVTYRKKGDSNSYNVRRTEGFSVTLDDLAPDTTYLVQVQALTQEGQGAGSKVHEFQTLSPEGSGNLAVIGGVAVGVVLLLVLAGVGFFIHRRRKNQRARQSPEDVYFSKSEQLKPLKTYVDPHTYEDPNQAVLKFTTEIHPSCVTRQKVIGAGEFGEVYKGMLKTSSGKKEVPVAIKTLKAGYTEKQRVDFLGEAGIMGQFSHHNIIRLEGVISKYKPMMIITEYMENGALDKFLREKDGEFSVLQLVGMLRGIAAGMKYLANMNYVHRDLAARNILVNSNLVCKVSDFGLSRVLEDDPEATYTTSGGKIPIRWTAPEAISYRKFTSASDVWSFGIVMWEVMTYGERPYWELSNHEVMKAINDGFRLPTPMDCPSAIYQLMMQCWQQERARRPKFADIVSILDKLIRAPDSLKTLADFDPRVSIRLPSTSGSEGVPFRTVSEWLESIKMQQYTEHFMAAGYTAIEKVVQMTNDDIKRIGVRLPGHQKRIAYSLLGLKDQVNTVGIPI
T1 sequence (Q07011 24-255): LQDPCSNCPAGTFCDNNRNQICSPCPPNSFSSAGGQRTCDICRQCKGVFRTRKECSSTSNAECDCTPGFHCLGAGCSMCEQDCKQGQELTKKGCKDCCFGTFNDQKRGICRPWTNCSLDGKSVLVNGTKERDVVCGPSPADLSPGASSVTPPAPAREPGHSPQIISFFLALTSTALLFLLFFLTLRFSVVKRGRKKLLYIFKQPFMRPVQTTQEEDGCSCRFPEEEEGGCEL

Q: How did the pKd (human EphA2 protein) turn out when `CCCC[C@@H]1NC(=O)[C@H](Cc2ccc(O)cc2)NC(=O)[C@@H]2CCCN2C(=O)[C@H](CC(=O)O)NC(=O)[C@H](C)NC(=O)[C@H](Cc2ccccc2)NC(=O)[C@@H]2CSCCC(=O)N3CN(CN(C3)C(=O)CCSC[C@@H](C(=O)N[C@@H](CNC(=O)CCc3cn(CCCNC(=O)CN(C)C(=O)CN(C)C(=O)CN(C)C(=O)CN(C)C(=O)CN(C)C(=O)CCOCCOCCOCCOCCOCCOCCOCCOCCOCCOCCOCCOCCOCCOCCOCCNC(=O)NCCC(=O)N(C)CC(=O)N(C)CC(=O)N(C)CC(=O)N(C)CC(=O)N(C)CC(=O)N(C)CC(=O)N(C)CC(=O)N(C)CC(=O)N(C)CC(=O)N(C)CC(=O)N[C@@H](C)C(=O)N[C@@H](CCCCNC(=N)N)C(=O)N[C@@H](CC(=O)O)C(=O)N[C@H]4CSCCC(=O)N5CN6CN(C5)C(=O)CCSC[C@H](NC(=O)[C@H](CC(C)C)NC(=O)[C@@H]5CCCN5C(=O)[C@H](CC(N)=O)NC(=O)[C@H](C(C)C)NC(=O)[C@H](CC(C)C)NC(=O)[C@@H]5C[C@@H](O)CN5C4=O)C(=O)N[C@@H](CC(C)C)C(=O)N[C@@H](Cc4c[nH]cn4)C(=O)N4CCC[C@H]4C(=O)N[C@H](CC(=O)O)C(=O)N[C@@H](Cc4c[nH]c5ccccc45)C(=O)N[C@@H](CCCCNC(=N)N)C(=O)N[C@H](C(N)=O)CSCCC6=O)nn3)C(N)=O)NC1=O)C(=O)CCSC[C@H](NC(=O)[C@H](C)NC(C)=O)C(=O)N[C@@H]([C@@H](C)CC)C(=O)N[C@@H](CCC(=O)O)C(=O)N[C@@H](CCC(=O)O)C(=O)NCC(=O)N[C@@H](CCC(N)=O)C(=O)N[C@@H](Cc1ccc(O)cc1)C(=O)N2` [BCY9655] was run?
A: 8.88

Q: And the pEC50 (CD137 [1])?
A: 8.39

Q: And the “Fold Induction over Background” value (CD137 [1])?
A: 6 fold

Q: What about the pKd (CD137 [2]) of the same compound?
A: 6.70

Q: `CCCC[C@@H]1NC(=O)[C@H](Cc2ccc(O)cc2)NC(=O)[C@@H]2CCCN2C(=O)[C@H](CC(=O)O)NC(=O)[C@H](C)NC(=O)[C@H](Cc2ccccc2)NC(=O)[C@@H]2CSCCC(=O)N3CN(CN(C3)C(=O)CCSC[C@@H](C(=O)N[C@@H](CNC(=O)CCc3cn(CCCNC(=O)CN(C)C(=O)CN(C)C(=O)CN(C)C(=O)CN(C)C(=O)CN(C)C(=O)CN(C)C(=O)CN(C)C(=O)CN(C)C(=O)CN(C)C(=O)CN(C)C(=O)COCCOCCOCCOCCOCCOCCOCCOCCOCCOCCNC(=O)NCCC(=O)N(C)CC(=O)N(C)CC(=O)N(C)CC(=O)N(C)CC(=O)N(C)CC(=O)N(C)CC(=O)N(C)CC(=O)N(C)CC(=O)N(C)CC(=O)N(C)CC(=O)N[C@@H](C)C(=O)N[C@@H](CCCCNC(=N)N)C(=O)N[C@@H](CC(=O)O)C(=O)N[C@H]4CSCCC(=O)N5CN6CN(C5)C(=O)CCSC[C@H](NC(=O)[C@H](CC(C)C)NC(=O)[C@@H]5CCCN5C(=O)[C@H](CC(N)=O)NC(=O)[C@H](C(C)C)NC(=O)[C@H](CC(C)C)NC(=O)[C@@H]5C[C@@H](O)CN5C4=O)C(=O)N[C@@H](CC(C)C)C(=O)N[C@@H](Cc4c[nH]cn4)C(=O)N4CCC[C@H]4C(=O)N[C@H](CC(=O)O)C(=O)N[C@@H](Cc4c[nH]c5ccccc45)C(=O)N[C@@H](CCCCNC(=N)N)C(=O)N[C@H](C(N)=O)CSCCC6=O)nn3)C(N)=O)NC1=O)C(=O)CCSC[C@H](NC(=O)[C@H](C)NC(C)=O)C(=O)N[C@@H]([C@@H](C)CC)C(=O)N[C@@H](CCC(=O)O)C(=O)N[C@@H](CCC(=O)O)C(=O)NCC(=O)N[C@@H](CCC(N)=O)C(=O)N[C@@H](Cc1ccc(O)cc1)C(=O)N2` [BCY9656] was tested. Which pKd (human EphA2 protein) did it give?
A: 9.12

Q: What about the pEC50 (CD137 [1]) of the same compound?
A: 8.96

Q: And the “Fold Induction over Background” value (CD137 [1])?
A: 3 fold

Q: And the pKd (CD137 [2])?
A: 6.80

Q: How did the pKd (human EphA2 protein) turn out when `CCCC[C@@H]1NC(=O)[C@H](Cc2ccc(O)cc2)NC(=O)[C@@H]2CCCN2C(=O)[C@H](CC(=O)O)NC(=O)[C@H](C)NC(=O)[C@H](Cc2ccccc2)NC(=O)[C@@H]2CSCCC(=O)N3CN(CN(C3)C(=O)CCSC[C@@H](C(=O)N[C@@H](CNC(=O)CCc3cn(CCCNC(=O)CN(C)C(=O)CN(C)C(=O)CN(C)C(=O)CN(C)C(=O)CN(C)C(=O)CN(C)C(=O)CN(C)C(=O)CN(C)C(=O)CN(C)C(=O)CN(C)C(=O)CN(C)C(=O)CN(C)C(=O)CN(C)C(=O)CN(C)C(=O)CN(C)C(=O)COCCOCCOCCOCCOCCNC(=O)NCCC(=O)N(C)CC(=O)N(C)CC(=O)N(C)CC(=O)N(C)CC(=O)N(C)CC(=O)N(C)CC(=O)N(C)CC(=O)N(C)CC(=O)N(C)CC(=O)N(C)CC(=O)N[C@@H](C)C(=O)N[C@@H](CCCCNC(=N)N)C(=O)N[C@@H](CC(=O)O)C(=O)N[C@H]4CSCCC(=O)N5CN6CN(C5)C(=O)CCSC[C@H](NC(=O)[C@H](CC(C)C)NC(=O)[C@@H]5CCCN5C(=O)[C@H](CC(N)=O)NC(=O)[C@H](C(C)C)NC(=O)[C@H](CC(C)C)NC(=O)[C@@H]5C[C@@H](O)CN5C4=O)C(=O)N[C@@H](CC(C)C)C(=O)N[C@@H](Cc4c[nH]cn4)C(=O)N4CCC[C@H]4C(=O)N[C@H](CC(=O)O)C(=O)N[C@@H](Cc4c[nH]c5ccccc45)C(=O)N[C@@H](CCCCNC(=N)N)C(=O)N[C@H](C(N)=O)CSCCC6=O)nn3)C(N)=O)NC1=O)C(=O)CCSC[C@H](NC(=O)[C@H](C)NC(C)=O)C(=O)N[C@@H]([C@@H](C)CC)C(=O)N[C@@H](CCC(=O)O)C(=O)N[C@@H](CCC(=O)O)C(=O)NCC(=O)N[C@@H](CCC(N)=O)C(=O)N[C@@H](Cc1ccc(O)cc1)C(=O)N2` [BCY9657] was run?
A: 8.96

Q: And the pEC50 (CD137 [1])?
A: 8.05

Q: What about the “Fold Induction over Background” value (CD137 [1]) of the same compound?
A: 26 fold

Q: What about the pKd (CD137 [2]) of the same compound?
A: 6.59

Q: How did the pKd (human EphA2 protein) turn out when `CCCC[C@@H]1NC(=O)[C@H](Cc2ccc(O)cc2)NC(=O)[C@@H]2CCCN2C(=O)[C@H](CC(=O)O)NC(=O)[C@H](C)NC(=O)[C@H](Cc2ccccc2)NC(=O)[C@@H]2CSCCC(=O)N3CN(CN(C3)C(=O)CCSC[C@@H](C(=O)N[C@@H](CNC(=O)CCc3cn(CCCNC(=O)CN(C)C(=O)CN(C)C(=O)CN(C)C(=O)CN(C)C(=O)CN(C)C(=O)COCCOCCOCCOCCOCCNC(=O)NCCC(=O)N(C)CC(=O)N(C)CC(=O)N(C)CC(=O)N(C)CC(=O)N(C)CC(=O)N(C)CC(=O)N(C)CC(=O)N(C)CC(=O)N(C)CC(=O)N(C)CC(=O)N[C@@H](C)C(=O)N[C@@H](CCCCNC(=N)N)C(=O)N[C@@H](CC(=O)O)C(=O)N[C@H]4CSCCC(=O)N5CN6CN(C5)C(=O)CCSC[C@H](NC(=O)[C@H](CC(C)C)NC(=O)[C@@H]5CCCN5C(=O)[C@H](CC(N)=O)NC(=O)[C@H](C(C)C)NC(=O)[C@H](CC(C)C)NC(=O)[C@@H]5C[C@@H](O)CN5C4=O)C(=O)N[C@@H](CC(C)C)C(=O)N[C@@H](Cc4c[nH]cn4)C(=O)N4CCC[C@H]4C(=O)N[C@H](CC(=O)O)C(=O)N[C@@H](Cc4c[nH]c5ccccc45)C(=O)N[C@@H](CCCCNC(=N)N)C(=O)N[C@H](C(N)=O)CSCCC6=O)nn3)C(N)=O)NC1=O)C(=O)CCSC[C@H](NC(=O)[C@H](C)NC(C)=O)C(=O)N[C@@H]([C@@H](C)CC)C(=O)N[C@@H](CCC(=O)O)C(=O)N[C@@H](CCC(=O)O)C(=O)NCC(=O)N[C@@H](CCC(N)=O)C(=O)N[C@@H](Cc1ccc(O)cc1)C(=O)N2` [BCY9658] was run?
A: 8.72

Q: What about the pEC50 (CD137 [1]) of the same compound?
A: 8.21

Q: What about the “Fold Induction over Background” value (CD137 [1]) of the same compound?
A: 11 fold

Q: And the pKd (CD137 [2])?
A: 6.82
